Laboratory results reported in patent US20150086530A1, “DOSING REGIMENS FOR THE TREATMENT OF POMPE DISEASE” (Amicus Therapeutics, Inc., priority 2012, published 2015).

Target: GAA (Homo sapiens, UniProt P10253)
Assay: Tissue GAA levels (activity, Western blot) in mice after rhGAA with 1-deoxynojirimycin hydrochloride
Assay type: in vivo, mouse
Set-up: from tissue; host or cells: heart, diaphragm, quadriceps, gastrocnemius, triceps and tongue of GAA knock-out mice injected with rhGAA
Conditions: GAA knock-out mice; 10, 100 or 1000 mg/kg PO 30 min before and 8, 16, 24 h after bolus IV rhGAA 10 mg/kg weekly; 2, 4, 7 days post-administration
From the text: The effect of a single oral administration of 1-deoxynojirimycin hydrochloride on rhGAA tissue uptake was studied in GAA knock-out mice.

OC[C@H]1NC[C@H](O)[C@@H](O)[C@@H]1O [AT2220, (2R,3R,4R,5S)-2-hydroxymethyl-piperidine-3,4,5-triol]
tissue GAA levels: significant and dose-dependent increases
